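Following 48 hours of exposure in 96-well plates, responses at five concentrations were used to interpolate endpoints linearly. GI50 is the concentration that inhibits growth by half.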 Calls of active or inactive are those of the source. Cut-off read from the data, not from the text of the source: active = GI50 up to about 1.1 µM and inactive = higher.
Experiments:
Assay in all cases: NCI-60 cell line screen, 48 h
[1] = system: SR
[2] = system: LXFL 529
[3] = system: BT-549
[4] = system: MDA-N
[5] = system: MDA-MB-231
[6] = system: Hs-578T
[7] = system: PC-3

Row | SMILES | GI50 [1] | GI50 [2] | GI50 [3] | GI50 [4] | GI50 [5] | GI50 [6] | GI50 [7]
1 | Cc1ccc2[nH]c3c(C)c4ccncc4c(C)c3c2c1 | 0.528 µM (active) | 1.15 µM (inactive) |  |  |  |  | 
2 | CN(C(=O)c1ccccc1)c1ccc2c(c1)C(=O)c1ccccc1C2=O | > 100 µM (inactive) | > 100 µM (inactive) |  |  |  |  | 
3 | COc1cc(C2C(Cl)C(=O)N2NC(=O)c2ccccc2O)ccc1O (centres undefined) |  | > 100 µM (inactive) |  |  |  |  | 
4 | CC(=O)c1c(-c2ccco2)c(C#N)c(=S)n(C2OC(CO)C(O)C(O)C2O)c1C (centres undefined) | 97.5 µM (inactive) |  | > 100 µM (inactive) | 92.3 µM (inactive) | > 100 µM (inactive) | 64.9 µM (inactive) | > 100 µM (inactive)
5 | CN/N=C(\C(=O)Nc1ccc(C)c(C)c1)C(C(=O)OC)c1nc2ccc([N+](=O)[O-])cc2nc1O (centres undefined) | > 100 µM (inactive) | > 100 µM (inactive) |  |  |  |  | 
6 | O=C1OC2(CC1C1(O)C3CC4CC(C3)CC1C4)C1CC3CC(C1)CC2C3 (centres undefined) |  | > 100 µM (inactive) |  |  |  |  | 
7 | Cc1ccc([N+](=O)[O-])cc1S(=O)(=O)Nc1ccc(C2=NNC(c3ccccc3O)C2)cc1 (centres undefined) | 23.9 µM (inactive) |  | 19.7 µM (inactive) | 28.6 µM (inactive) | 26.7 µM (inactive) | 43.7 µM (inactive) | 29.4 µM (inactive)
8 | CC1(C(=O)O)CCC(C(=O)O)C(C)(C)O1 (centres undefined) |  |  | > 100 µM (inactive) | > 100 µM (inactive) |  | > 100 µM (inactive) | > 100 µM (inactive)
